Where a name gives a salt, the structure may show the parent alone.
Target: T1, human vasopressin V1b receptor (Homo sapiens, UniProt P47901)
T1 construct: expressed in transfected cells; host or cells: CHO-K1 (cell line hV1b_3H2_CHO), membrane preparation
T1 sequence (P47901 1-424): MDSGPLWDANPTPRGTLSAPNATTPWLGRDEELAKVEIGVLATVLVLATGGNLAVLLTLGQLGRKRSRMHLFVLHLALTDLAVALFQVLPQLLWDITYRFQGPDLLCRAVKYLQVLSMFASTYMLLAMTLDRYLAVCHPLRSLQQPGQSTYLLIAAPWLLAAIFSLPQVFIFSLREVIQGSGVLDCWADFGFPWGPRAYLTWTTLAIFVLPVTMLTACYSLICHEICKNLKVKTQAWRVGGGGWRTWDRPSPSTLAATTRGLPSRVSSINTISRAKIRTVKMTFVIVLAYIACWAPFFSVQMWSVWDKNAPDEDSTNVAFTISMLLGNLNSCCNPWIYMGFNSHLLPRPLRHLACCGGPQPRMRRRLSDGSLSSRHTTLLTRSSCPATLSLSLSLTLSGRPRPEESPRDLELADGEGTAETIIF
Assay: Vasopressin V1b receptor binding test
Conditions: membranes of CHO-K1 cells, displacement of 1.5 nM 3H-AVP
Procedure: • Vasopressin V1b Receptor Binding Test: • Substances:
The test substances were dissolved at a concentration of 10^−2 M in DMSO and diluted further in DMSO to 5×10^−4 M to 5×10^−9 M. These DMSO solutions were diluted 1:10 with test buffer. The concentration of substance was again diluted 1:5 in the test preparation.
The membrane pellet was homogenized and centrifuged again as described, and then taken up in 50 mM Tris-HCl, pH 7.4, homogenized and, frozen in aliquots, stored at −190° C. in liquid nitrogen.
The incubation buffer was: 50 mM Tris, 10 mM MgCl2, 0.1% BSA, pH 7.4. […] The nonspecific binding was determined with 1 μM AVP (Bachem #H1780). All determinations were performed in triplicate. After incubation (60 minutes at room temperature), the free radioligand was filtered off by vacuum filtration (Skatron cell harvester 7000) on Whatman GF/B glass-fibre filter mats and the filters were transferred to scintillation vessels. Liquid scintillation measurement was performed in a Tricarb instrument, Model 2000 or 2200CA (Packard). Conversion of the measured cpm to dpm was performed with the aid of a standard quench series.
The binding parameters were calculated by nonlinear regression in SAS.
For the compounds according to the invention, the affinities for the human vasopressin receptor V1b were measured according to the above test and the affinity constant (Ki) was determined.

| Structure (SMILES) | Ki |
| --- | --- |
| COc1ccc(S(=O)(=O)N2C(=O)C(c3cc(F)ccc3OC)(N3CCN(c4ccncc4)CC3)c3cc(C#N)ccc32)c(OC)c1 (racemic) [Example 65, (±)-5-Cyano-1-(2,4-dimethoxy-benzenesulphonyl)-3-(5-fluoro-2-methoxyphenyl)-3-(4-pyridin-4-yl-piperazin-1-yl)-2,3-dihydro-1H-indol-2-one] | 50 to 500 nM |
| COc1ccc(S(=O)(=O)N2C(=O)C(c3cc(C)ccc3OC)(N3CCN(c4ccncc4)CC3)c3cc(C#N)ccc32)c(OC)c1 (racemic) [Example 67, (±)-5-Cyano-1-(2,4-dimethoxy-benzenesulphonyl)-3-(2-methoxy-5-methylphenyl)-3-(4-pyridin-4-yl-piperazin-1-yl)-2,3-dihydro-1H-indol-2-one×trifluoroacetic acid] | < 50 nM |
| CCOc1ccccc1C1(N2CCN(c3ccncc3)CC2)C(=O)N(S(=O)(=O)c2ccc(C#N)cc2F)c2ccc(C#N)cc21 (racemic) [Example 68, (±)-5-Cyano-1-(4-cyano-2-fluoro-benzenesulphonyl)-3-(2-ethoxyphenyl)-3-(4-pyridin-4-yl-piperazin-1-yl)-2,3-dihydro-1H-indol-2-one] | 50 to 500 nM |
| CCOc1ccccc1C1(N2CCN(c3ccncc3)CC2)C(=O)N(S(=O)(=O)c2ccc(F)cc2F)c2ccc(C#N)cc21 (racemic) [Example 72, (±)-5-Cyano-1-(2,4-difluoro-benzenesulphonyl)-3-(2-ethoxyphenyl)-3-(4-pyridin-4-yl-piperazin-1-yl)-2,3-dihydro-1H-indol-2-one trifluoroacetate] | 50 to 500 nM |
| CCOc1ccccc1C1(N2CCN(C3CCN(C)CC3)CC2)C(=O)N(S(=O)(=O)c2ccc(OC)cc2OC)c2ccc(C#N)cc21 (racemic) [Example 76, (±)-5-Cyano-1-(2,4-dimethoxy-benzenesulphonyl)-3-(2-ethoxyphenyl)-3-[4-(1-methyl-piperidin-4-yl)-piperazin-1-yl]-2,3-dihydro-1H-indol-2-one] | 50 to 500 nM |
| CCOc1ccc(S(=O)(=O)N2C(=O)C(c3ccccc3OCC)(N3CCN(c4ccncc4)CC3)c3cc(C#N)ccc32)c(OC)c1 (racemic) [Example 77, (±)-5-Cyano-1-(4-ethoxy-2-methoxy-benzenesulphonyl)-3-(2-ethoxyphenyl)-3-(4-pyridin-4-yl-piperazin-1-yl)-2,3-dihydro-1H-indol-2-one hydrochloride] | 50 to 500 nM |
| CCOc1ccccc1C1(N2CCN(c3ccncc3)CC2)C(=O)N(S(=O)(=O)c2ccc(Cl)cc2F)c2ccc(C#N)cc21 (racemic) [Example 78, (±)-5-Cyano-1-(4-chloro-2-fluoro-benzenesulphonyl)-3-(2-ethoxyphenyl)-3-(4-pyridin-4-yl-piperazin-1-yl)-2,3-dihydro-1H-indol-2-one] | 50 to 500 nM |
| CCOc1ccccc1C1(N2CCN(c3ccncc3)CC2)C(=O)N(S(=O)(=O)c2ccc(C(C)(C)C)cc2)c2ccc(C#N)cc21 (racemic) [Example 80, (±)-5-Cyano-1-(4-tert-butyl-benzenesulphonyl)-3-(2-ethoxyphenyl)-3-(4-pyridin-4-yl-piperazin-1-yl)-2,3-dihydro-1H-indol-2-one] | 50 to 500 nM |
| CCOc1ccccc1C1(N2CCN(c3ccncc3)CC2)C(=O)N(S(=O)(=O)c2ccc(C(C)C)cc2)c2ccc(C#N)cc21 (racemic) [Example 81, (±)-5-Cyano-3-(2-ethoxyphenyl)-1-(4-isopropyl-benzenesulphonyl)-3-(4-pyridin-4-yl-piperazin-1-yl)-2,3-dihydro-1H-indol-2-one] | 50 to 500 nM |
| CCOc1ccccc1C1(N2CCN(c3ccncc3)CC2)C(=O)N(S(=O)(=O)c2ccc(N)cc2)c2ccc(C#N)cc21 (racemic) [Example 84, (±)-5-Cyano-1-(4-amino-benzenesulphonyl)-3-(2-ethoxyphenyl)-3-(4-pyridin-4-yl-piperazin-1-yl)-2,3-dihydro-1H-indol-2-one] | 50 to 500 nM |
| CCOc1ccccc1C1(N2CCN(c3ccncc3)CC2)C(=O)N(S(=O)(=O)c2ccc(C)cc2)c2ccc(C#N)cc21 (racemic) [Example 85, (±)-5-Cyano-3-(2-ethoxyphenyl)-3-(4-pyridin-4-yl-piperazin-1-yl)-1-(toluene-4-sulphonyl)-2,3-dihydro-1H-indol-2-one] | 50 to 500 nM |
| CCOc1ccccc1C1(N2CCN(c3ccncc3)CC2)C(=O)N(S(=O)(=O)c2ccc(S(C)(=O)=O)cc2)c2ccc(C#N)cc21 (racemic) [Example 86, (±)-5-Cyano-3-(2-ethoxyphenyl)-1-(4-methanesulphonyl-benzenesulphonyl)-3-(4-pyridin-4-yl-piperazin-1-yl)-2,3-dihydro-1H-indol-2-one] | 50 to 500 nM |
| CCOc1ccccc1C1(N2CCN(c3ccncc3)CC2)C(=O)N(S(=O)(=O)c2ccc(OC(F)F)cc2)c2ccc(C#N)cc21 (racemic) [Example 87, (±)-5-Cyano-1-(4-difluoromethoxy-benzenesulphonyl)-3-(2-ethoxyphenyl)-3-(4-pyridin-4-yl-piperazin-1-yl)-2,3-dihydro-1H-indol-2-one] | 50 to 500 nM |
| CCOc1ccccc1C1(N2CCN(c3ccncc3)CC2)C(=O)N(S(=O)(=O)c2ccc(C(C)=O)cc2)c2ccc(C#N)cc21 (racemic) [Example 88, (±)-5-Cyano-1-(4-acetyl-benzenesulphonyl)-3-(2-ethoxyphenyl)-3-(4-pyridin-4-yl-piperazin-1-yl)-2,3-dihydro-1H-indol-2-one] | 50 to 500 nM |
| CCOc1ccc(S(=O)(=O)N2C(=O)C(c3ccccc3OCC)(N3CCN(c4ccncc4)CC3)c3cc(C#N)ccc32)cc1 (racemic) [Example 89, (±)-5-Cyano-1-(4-ethoxy-benzenesulphonyl)-3-(2-ethoxyphenyl)-3-(4-pyridin-4-yl-piperazin-1-yl)-2,3-dihydro-1H-indol-2-one] | 50 to 500 nM |
| CCOc1ccccc1C1(N2CCN(c3ccncc3)CC2)C(=O)N(S(=O)(=O)c2ccc(CC)cc2)c2ccc(C#N)cc21 (racemic) [Example 90, (±)-5-Cyano-3-(2-ethoxyphenyl)-1-(4-ethyl-benzenesulphonyl)-3-(4-pyridin-4-yl-piperazin-1-yl)-2,3-dihydro-1H-indol-2-one] | 50 to 500 nM |
| CCOc1ccccc1C1(N2CCN(c3ccncc3)CC2)C(=O)N(S(=O)(=O)c2ccc([N+](=O)[O-])cc2OC)c2ccc(C#N)cc21 (racemic) [Example 91, (±)-5-Cyano-3-(2-ethoxyphenyl)-1-(2-methoxy-4-nitro-benzenesulphonyl)-3-(4-pyridin-4-yl-piperazin-1-yl)-2,3-dihydro-1H-indol-2-one] | 50 to 500 nM |
| CCOc1ccc(OC)cc1C1(N2CCN(c3ccnc(C(C)C)c3)CC2)C(=O)N(S(=O)(=O)c2ccc(OC)cc2OC)c2ccc(C#N)cc21 (racemic) [Example 92, (±)-5-Cyano-1-(2,4-dimethoxy-benzenesulphonyl)-3-(2-ethoxy-5-methoxyphenyl)-3-[4-(2-isopropyl-pyridin-4-yl)-piperazin-1-yl]-2,3-dihydro-1H-indol-2-one] | < 50 nM |
| CCOc1ccccc1C1(N2CCN(c3ccnc(CC)c3)CC2)C(=O)N(S(=O)(=O)c2ccc(OC)cc2OC)c2ccc(C#N)cc21 (racemic) [Example 93, (±)-5-Cyano-1-(2,4-dimethoxy-benzenesulphonyl)-3-(2-ethoxyphenyl)-3-[4-(2-ethyl-pyridin-4-yl)-piperazin-1-yl]-2,3-dihydro-1H-indol-2-one] | < 50 nM |
| CCOc1ccc(OC)cc1C1(N2CCN(c3ccnc(CC)c3)CC2)C(=O)N(S(=O)(=O)c2ccc(OC)cc2OC)c2ccc(C#N)cc21 (racemic) [Example 94, (±)-5-Cyano-1-(2,4-dimethoxy-benzenesulphonyl)-3-(2-ethoxy-5-methoxyphenyl)-3-[4-(2-ethyl-pyridin-4-yl)-piperazin-1-yl]-2,3-dihydro-1H-indol-2-one] | < 50 nM |
| CCOc1ccc(OC)cc1C1(N2CCCN(c3ccnc(C)c3)CC2)C(=O)N(S(=O)(=O)c2ccc(OC)cc2OC)c2ccc(C#N)cc21 (racemic) [Example 95, (±)-5-Cyano-1-(2,4-dimethoxy-benzenesulphonyl)-3-(2-ethoxy-5-methoxyphenyl)-3-[4-(2-methyl-pyridin-4-yl)-[1.4]diazepan-1-yl]-2,3-dihydro-1H-indol-2-one] | < 50 nM |
| CCOc1ccc(OC)cc1C1(N2CCN(C3CCNCC3)CC2)C(=O)N(S(=O)(=O)c2ccc(OC)cc2OC)c2ccc(C#N)cc21 (racemic) [Example 100, (±)-5-Cyano-1-(2,4-dimethoxy-benzenesulphonyl)-3-(2-ethoxy-5-methoxyphenyl)-3-(4-piperidin-4-yl-piperazin-1-yl)-2,3-dihydro-1H-indol-2-one hydrochloride] | < 50 nM |

Source: patent US8431567B2 (Abbott GmbH & Co. KG, priority 2006, dated 2013)
